Values of other authors in patent US10155776B2, “Method for selective detection and estimation of histidine and cystein” (Council of Scientific and Industrial Research, priority 2014, dated 2018).

Compound	pKa value of the thiol group in the side chain
N[C@@H](CCC(=O)N[C@@H](CS)C(=O)NCC(=O)O)C(=O)O [glutathione]	9.20
N[C@@H](CCS)C(=O)O [homocysteine]	8.87
